{"source": "patent US6620810B2", "about": "“4-thioxo-4,7-dihydro-thieno[2,3-b]pyridine-5-carboxamides as antiviral agents” (Pharmacia & Upjohn Company, priority 2001, dated 2003)", "type_in_all_cases": "biochemical", "key": {"[1]": {"target": "T1, HCMV polymerase (Human cytomegalovirus, UniProt P08546)", "T1 construct": "made in house; host or cells: recombinant baculovirus-infected SF-9 cells", "T1 sequence (P08546 whole entry)": "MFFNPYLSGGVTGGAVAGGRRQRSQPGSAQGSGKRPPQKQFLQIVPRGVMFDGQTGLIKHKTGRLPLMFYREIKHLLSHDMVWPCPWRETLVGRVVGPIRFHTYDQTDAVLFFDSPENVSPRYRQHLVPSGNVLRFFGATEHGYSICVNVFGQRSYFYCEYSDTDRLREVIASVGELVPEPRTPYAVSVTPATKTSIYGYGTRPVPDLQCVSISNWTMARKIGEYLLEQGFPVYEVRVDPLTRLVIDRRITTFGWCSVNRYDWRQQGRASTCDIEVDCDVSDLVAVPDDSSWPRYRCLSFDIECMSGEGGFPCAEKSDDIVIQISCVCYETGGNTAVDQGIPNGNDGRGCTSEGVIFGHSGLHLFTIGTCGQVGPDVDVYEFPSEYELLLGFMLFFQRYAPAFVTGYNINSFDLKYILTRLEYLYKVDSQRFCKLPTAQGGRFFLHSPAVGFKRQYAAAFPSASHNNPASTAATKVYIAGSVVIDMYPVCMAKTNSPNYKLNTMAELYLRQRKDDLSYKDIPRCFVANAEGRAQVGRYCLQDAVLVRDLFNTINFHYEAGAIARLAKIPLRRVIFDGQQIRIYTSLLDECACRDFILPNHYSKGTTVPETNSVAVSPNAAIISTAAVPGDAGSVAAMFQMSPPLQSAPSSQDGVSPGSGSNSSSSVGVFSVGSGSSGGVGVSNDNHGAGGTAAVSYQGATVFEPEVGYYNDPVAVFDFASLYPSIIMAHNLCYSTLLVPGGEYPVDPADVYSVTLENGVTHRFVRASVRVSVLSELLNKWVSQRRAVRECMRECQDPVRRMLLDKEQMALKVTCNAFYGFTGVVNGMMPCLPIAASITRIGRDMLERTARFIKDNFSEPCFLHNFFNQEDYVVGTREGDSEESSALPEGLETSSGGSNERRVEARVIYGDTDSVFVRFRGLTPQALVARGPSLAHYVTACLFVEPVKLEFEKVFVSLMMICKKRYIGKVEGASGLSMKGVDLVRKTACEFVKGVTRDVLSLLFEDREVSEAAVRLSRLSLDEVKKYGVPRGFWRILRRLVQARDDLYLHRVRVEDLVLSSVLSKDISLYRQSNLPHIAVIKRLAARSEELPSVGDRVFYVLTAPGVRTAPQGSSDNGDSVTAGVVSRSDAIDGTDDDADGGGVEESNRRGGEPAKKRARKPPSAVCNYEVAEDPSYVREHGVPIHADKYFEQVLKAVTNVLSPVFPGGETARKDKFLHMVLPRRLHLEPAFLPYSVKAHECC", "test": "HCMV polymerase scintillation proximity assay (Test A, modified version)", "settings": "modified SPA assay: compounds diluted in 100% DMSO, 4.5 mM DTT in polymerase buffer", "protocol": "The HCMV polymerase assay is performed using a scintillation proximity assay (SPA) as described in several references, such as N. D. Cook, et al., Pharmaceutical Manufacturing International, pages 49-53 (1992); K. Takeuchi, Laboratory Practice, September issue (1992); U.S. Pat. No. 4,568,649 (1986); which are incorporated by reference herein. Reactions are performed in 96-well plates. The assay is conducted in 100 μl volume with 5.4 mM HEPES (pH 7.5), 11.7 mM KCl, 4.5 mM MgCl2, 0.36 mg/ml BSA, and 90 nM ^3H-dTTP. Assays are run with and without CHAPS, (3-[(3-cholamidopropyl)-dimethylammonio]-1-propane-sulfonate) at a final concentration of 2 mM. HCMV polymerase is diluted in enzyme dilution buffer containing 50% glycerol, 250 mM NaCl, 10 mM HEPES (pH 7.5), 100 μg/ml BSA, and 0.01% sodium azide. […] Plates are incubated 10 min. at 37° C., then equilibrated to room temperature, and counted on a Packard Topcount. Linear regressions are performed and IC50's are calculated using computer software.\nA modified version of the above HCMV polymerase assay is performed as described above, but with the following changes: Compounds are diluted in 100% DMSO until final dilution into assay buffer. […] In Table 1, the term “nd” refers to activity data not determined."}, "[2]": {"target": "HSV polymerase (Human herpesvirus 1, UniProt P04293)", "sequence (P04293 whole entry)": "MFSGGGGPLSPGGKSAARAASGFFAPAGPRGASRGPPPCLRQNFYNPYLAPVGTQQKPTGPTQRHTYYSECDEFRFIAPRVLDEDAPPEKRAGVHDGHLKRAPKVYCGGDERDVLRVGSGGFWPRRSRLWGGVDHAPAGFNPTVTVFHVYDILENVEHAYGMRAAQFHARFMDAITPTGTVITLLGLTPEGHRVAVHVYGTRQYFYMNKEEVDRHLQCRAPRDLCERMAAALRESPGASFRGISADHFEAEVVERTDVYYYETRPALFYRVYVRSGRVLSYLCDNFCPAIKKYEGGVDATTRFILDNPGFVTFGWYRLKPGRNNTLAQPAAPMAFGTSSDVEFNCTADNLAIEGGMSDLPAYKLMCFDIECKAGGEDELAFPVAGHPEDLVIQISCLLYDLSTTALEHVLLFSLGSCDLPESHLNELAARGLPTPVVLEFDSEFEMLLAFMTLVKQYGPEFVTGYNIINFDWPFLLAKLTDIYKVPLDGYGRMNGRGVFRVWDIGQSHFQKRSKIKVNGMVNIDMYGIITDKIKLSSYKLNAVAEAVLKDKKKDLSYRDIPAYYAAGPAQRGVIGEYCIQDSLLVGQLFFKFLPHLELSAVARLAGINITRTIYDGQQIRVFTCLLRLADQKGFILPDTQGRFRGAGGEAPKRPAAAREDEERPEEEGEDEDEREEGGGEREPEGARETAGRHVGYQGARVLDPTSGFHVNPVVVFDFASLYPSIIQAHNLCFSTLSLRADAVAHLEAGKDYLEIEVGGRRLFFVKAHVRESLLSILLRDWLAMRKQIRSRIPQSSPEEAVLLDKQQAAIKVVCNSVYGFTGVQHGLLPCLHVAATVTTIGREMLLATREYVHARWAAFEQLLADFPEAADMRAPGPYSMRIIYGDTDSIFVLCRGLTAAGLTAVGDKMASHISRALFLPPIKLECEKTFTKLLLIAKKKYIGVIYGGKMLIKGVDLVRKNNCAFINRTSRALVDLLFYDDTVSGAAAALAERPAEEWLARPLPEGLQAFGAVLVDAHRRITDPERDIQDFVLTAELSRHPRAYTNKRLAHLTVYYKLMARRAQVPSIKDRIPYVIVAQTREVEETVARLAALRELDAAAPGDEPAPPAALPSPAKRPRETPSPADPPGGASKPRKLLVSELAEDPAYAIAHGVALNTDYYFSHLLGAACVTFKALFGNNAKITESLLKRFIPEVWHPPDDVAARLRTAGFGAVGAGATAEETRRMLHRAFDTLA", "test": "HSV polymerase assay (Table 1)"}, "[3]": {"target": "VZV polymerase (Varicella-zoster virus, UniProt P09252)", "sequence (P09252 whole entry)": "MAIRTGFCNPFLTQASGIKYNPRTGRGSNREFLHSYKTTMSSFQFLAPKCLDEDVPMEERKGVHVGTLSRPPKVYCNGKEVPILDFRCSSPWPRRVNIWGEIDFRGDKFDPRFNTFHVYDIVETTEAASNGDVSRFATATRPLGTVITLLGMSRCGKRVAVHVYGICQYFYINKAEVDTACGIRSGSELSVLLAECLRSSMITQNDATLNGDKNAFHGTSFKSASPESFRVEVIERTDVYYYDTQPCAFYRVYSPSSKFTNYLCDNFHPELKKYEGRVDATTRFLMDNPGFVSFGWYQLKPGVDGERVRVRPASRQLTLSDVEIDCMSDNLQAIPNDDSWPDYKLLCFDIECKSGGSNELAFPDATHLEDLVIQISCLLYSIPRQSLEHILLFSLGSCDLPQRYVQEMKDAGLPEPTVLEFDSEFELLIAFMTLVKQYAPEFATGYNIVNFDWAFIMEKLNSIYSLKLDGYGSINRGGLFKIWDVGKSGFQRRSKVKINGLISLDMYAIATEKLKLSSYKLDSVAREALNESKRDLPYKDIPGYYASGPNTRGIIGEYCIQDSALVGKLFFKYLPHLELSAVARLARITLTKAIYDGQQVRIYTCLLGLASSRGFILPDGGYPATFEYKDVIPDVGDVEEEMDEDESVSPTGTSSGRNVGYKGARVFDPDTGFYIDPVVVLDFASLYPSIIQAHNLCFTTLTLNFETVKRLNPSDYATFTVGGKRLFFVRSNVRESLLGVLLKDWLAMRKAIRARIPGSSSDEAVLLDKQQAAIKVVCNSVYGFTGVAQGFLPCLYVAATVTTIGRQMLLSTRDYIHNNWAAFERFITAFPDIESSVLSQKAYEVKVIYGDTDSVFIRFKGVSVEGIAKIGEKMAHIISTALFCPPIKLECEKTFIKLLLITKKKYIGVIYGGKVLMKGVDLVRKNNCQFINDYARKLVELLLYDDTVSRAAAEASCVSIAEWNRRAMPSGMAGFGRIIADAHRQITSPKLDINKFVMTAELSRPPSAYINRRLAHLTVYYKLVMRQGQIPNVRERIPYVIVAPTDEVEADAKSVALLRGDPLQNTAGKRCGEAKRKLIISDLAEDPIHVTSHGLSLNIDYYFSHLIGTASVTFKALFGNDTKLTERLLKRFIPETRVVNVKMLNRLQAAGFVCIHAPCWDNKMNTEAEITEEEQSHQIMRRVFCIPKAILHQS", "test": "VZV polymerase assay (Table 1)"}}, "data": [{"compound": "Cn1cc(C(=O)NCc2ccc(Cl)cc2)c(=S)c2cc(CN3CCOCC3)sc21", "note": "[Example 1, N-(4-chlorobenzyl)-7-methyl-2-(4-morpholinylmethyl)-4-thioxo-4,7-dihydrothieno[2,3-b]pyridine-5-carboxamide]", "values": [{"measurement": "IC50", "setting": "[1]", "value": 630, "unit": "nM"}, {"measurement": "IC50", "setting": "[2]", "value": 160, "unit": "nM"}, {"measurement": "IC50", "setting": "[3]", "value": 80, "unit": "nM"}]}]}
